{"source": "PubChem BioAssay AID1963852", "about": "(Molecular Pharmacology Branch, DTP, NCI, 2024);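 also: spheroids exposed to compounds for seven days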;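 as to viability, T/C: 100% = DMSO vehicle control viability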", "tested_on": "282377-053-R-J1-PDC complex spheroid viability", "experiment": "Anticancer human tumor 282377-053-R-J1-PDC patient-derived colon adenocarcinoma cell line growth inhibition [POLQ]", "conditions": "for IC50: curve of first compound; for viability, T/C: stronger effect = lower value", "procedure,_shortened": "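Patient-derived tumour cells were co-cultured with HUVEC and mesenchymal stem cells as multicellular spheroids at 37 °C. They were treated with POLQ inhibitors (novobiocin, ART-558, RP6685) alone or combined with other agents. Top concentrations were at or near clinical Cmax (otherwise 10 microM; SN-38 at 1 microM), decreasing in half-log steps.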"}
{"smiles": "CCc1cc2c(N3CCc4c(cc(Cn5ccnc5)cc4-c4cn(C)nc4C(F)(F)F)C3=O)ccnc2c(OC)n1", "note": "+ Cc1cccc(N(C)C(=O)C2C(O)CCN2c2nc(C)cc(C(F)(F)F)c2C#N)c1", "values": [{"measurement": "IC50", "setting": "second compound 0.0316 µM", "value": "> 10", "unit": "µM"}, {"measurement": "IC50", "setting": "second compound 0.1 µM", "value": "> 10", "unit": "µM"}, {"measurement": "IC50", "setting": "second compound 0.316 µM", "value": "> 10", "unit": "µM"}, {"measurement": "IC50", "setting": "second compound 1 µM", "value": "> 10", "unit": "µM"}, {"measurement": "IC50", "setting": "second compound 3.16 µM", "value": "> 10", "unit": "µM"}, {"measurement": "IC50", "setting": "second compound 10 µM", "value": "> 10", "unit": "µM"}, {"measurement": "viability, T/C", "setting": "second compound 0.0316 µM, first compound 0.0316 µM", "value": 108, "unit": "%"}, {"measurement": "viability, T/C", "setting": "second compound 0.0316 µM, first compound 0.1 µM", "value": 94.1, "unit": "%"}, {"measurement": "viability, T/C", "setting": "second compound 0.0316 µM, first compound 0.316 µM", "value": 91, "unit": "%"}, {"measurement": "viability, T/C", "setting": "second compound 0.0316 µM, first compound 1 µM", "value": 110, "unit": "%"}, {"measurement": "viability, T/C", "setting": "second compound 0.0316 µM, first compound 3.16 µM", "value": 104, "unit": "%"}, {"measurement": "viability, T/C", "setting": "second compound 0.0316 µM, first compound 10 µM", "value": 106, "unit": "%"}, {"measurement": "viability, T/C", "setting": "second compound 0.1 µM, first compound 0.0316 µM", "value": 93.4, "unit": "%"}, {"measurement": "viability, T/C", "setting": "second compound 0.1 µM, first compound 0.1 µM", "value": 90.9, "unit": "%"}, {"measurement": "viability, T/C", "setting": "second compound 0.1 µM, first compound 0.316 µM", "value": 85.8, "unit": "%"}, {"measurement": "viability, T/C", "setting": "second compound 0.1 µM, first compound 1 µM", "value": 91.4, "unit": "%"}, {"measurement": "viability, T/C", "setting": "second compound 0.1 µM, first compound 3.16 µM", "value": 103, "unit": "%"}, {"measurement": "viability, T/C", "setting": "second compound 0.1 µM, first compound 10 µM", "value": 121, "unit": "%"}, {"measurement": "viability, T/C", "setting": "second compound 0.316 µM, first compound 0.0316 µM", "value": 95, "unit": "%"}, {"measurement": "viability, T/C", "setting": "second compound 0.316 µM, first compound 0.1 µM", "value": 94.9, "unit": "%"}, {"measurement": "viability, T/C", "setting": "second compound 0.316 µM, first compound 0.316 µM", "value": 89.8, "unit": "%"}, {"measurement": "viability, T/C", "setting": "second compound 0.316 µM, first compound 1 µM", "value": 86.1, "unit": "%"}, {"measurement": "viability, T/C", "setting": "second compound 0.316 µM, first compound 3.16 µM", "value": 104, "unit": "%"}, {"measurement": "viability, T/C", "setting": "second compound 0.316 µM, first compound 10 µM", "value": 93.8, "unit": "%"}, {"measurement": "viability, T/C", "setting": "second compound 1 µM, first compound 0.0316 µM", "value": 95.2, "unit": "%"}, {"measurement": "viability, T/C", "setting": "second compound 1 µM, first compound 0.1 µM", "value": 87.6, "unit": "%"}, {"measurement": "viability, T/C", "setting": "second compound 1 µM, first compound 0.316 µM", "value": 104, "unit": "%"}, {"measurement": "viability, T/C", "setting": "second compound 1 µM, first compound 1 µM", "value": 101, "unit": "%"}, {"measurement": "viability, T/C", "setting": "second compound 1 µM, first compound 3.16 µM", "value": 107, "unit": "%"}, {"measurement": "viability, T/C", "setting": "second compound 1 µM, first compound 10 µM", "value": 109, "unit": "%"}, {"measurement": "viability, T/C", "setting": "second compound 3.16 µM, first compound 0.0316 µM", "value": 98.9, "unit": "%"}, {"measurement": "viability, T/C", "setting": "second compound 3.16 µM, first compound 0.1 µM", "value": 91.6, "unit": "%"}, {"measurement": "viability, T/C", "setting": "second compound 3.16 µM, first compound 0.316 µM", "value": 101, "unit": "%"}, {"measurement": "viability, T/C", "setting": "second compound 3.16 µM, first compound 1 µM", "value": 99.6, "unit": "%"}, {"measurement": "viability, T/C", "setting": "second compound 3.16 µM, first compound 3.16 µM", "value": 115, "unit": "%"}, {"measurement": "viability, T/C", "setting": "second compound 3.16 µM, first compound 10 µM", "value": 116, "unit": "%"}, {"measurement": "viability, T/C", "setting": "second compound 10 µM, first compound 0.0316 µM", "value": 98.9, "unit": "%"}, {"measurement": "viability, T/C", "setting": "second compound 10 µM, first compound 0.1 µM", "value": 95.6, "unit": "%"}, {"measurement": "viability, T/C", "setting": "second compound 10 µM, first compound 0.316 µM", "value": 108, "unit": "%"}, {"measurement": "viability, T/C", "setting": "second compound 10 µM, first compound 1 µM", "value": 96.4, "unit": "%"}, {"measurement": "viability, T/C", "setting": "second compound 10 µM, first compound 3.16 µM", "value": 111, "unit": "%"}, {"measurement": "viability, T/C", "setting": "second compound 10 µM, first compound 10 µM", "value": 124, "unit": "%"}]}
